Results as given in patent US20050043326A1, “Compounds” (Pfizer Inc, priority 2003, published 2005).

Key:
[1] = test system: TNFα release from human peripheral blood mononuclear cells; assay: Inhibition of TNFα release from LPS-stimulated human peripheral blood mononuclear cells (TNFα screen); assay type: cell-based; conditions: PBMC, 18 hours incubation, TNFα in supernatant by ELISA
Experimental: Venous blood is collected from healthy volunteers and the mononuclear cells purified by centrifugation through Histopaque (Ficoll) cushions. TNFα production from these cells is stimulated by addition of lipopolysaccharide. After 18 hours incubation in the presence of LPS, the cell supernatant is removed and the concentration of TNFα in the supernatant determined by ELISA.
(§1) Data are presented below for the Examples in which the TNFα and PDE4 inhibition are presented as IC50 values in nM.

PDE4 = PDE4 inhibition: hydrolysis of tritium labelled cAMP to AMP, SPA bead scintillation counting; assay type: biochemical; conditions: tritium labelled cAMP incubated with PDE4, yttrium silicate SPA beads
Experimental: The PDE4 inhibitory activity of the nicotinamide derivatives of the formula (I) is determined by the ability of compounds to inhibit the hydrolysis of cAMP to AMP by PDE4 (Thompson J W, Teraski W L, Epstein P M, Strada S J., “Assay of nucleotidephosphodiesterase and resolution of multiple molecular forms of the isoenzyme”, Advances in cyclic nucleotides research, edited by Brooker G, Greengard P, Robinson G A. Raven Press, New York 1979, 10, p. 69-92). Tritium labelled cAMP is incubated with PDE4. Following incubation, the radiolabelled AMP produced is able to bind yttrium silicate SPA beads. These SPA beads subsequently produce light that can be quantified by scintillation counting. The addition of a PDE4 inhibitor prevents the formation of AMP from cAMP and counts are diminished. The IC50 of a PDE4 inhibitor can be defined as the concentration of a compound that leads to a 50% reduction in counts compared to the PDE4 only (no inhibitor) control wells.
as §1

SMILES | IC50 [1] [nM] | IC50 (PDE4) [nM]
O=C(N[C@H]1CC[C@@H](NS(=O)(=O)c2cccc3cccnc23)CC1)c1cccnc1OC1CCSCC1 [Example 65] | 0.02 | 1.8
O=C(N[C@H]1CC[C@@H](NS(=O)(=O)c2c(O)ccc3nsnc23)CC1)c1cc(F)cnc1OC1CCSCC1 [Example 74, Syn-5-Fluoro-N-[4-(5-hydroxy-benzo[1,2,5]thiadiazole-4-sulfonylamino)-cyclohexyl]-2-(tetrahydro-thiopyran-4-yloxy)-nicotinamide] | 1 | 3.5
